In patent US20080014187A1, “Compositions and Methods for Treating Hypertension and Inflammation” (priority 2006, published 2008):

How the values were obtained:
[1] = test system: serum IL-6 and TNF-alpha; settings: reported in the literature; cited from earlier work
[2] = eight human clinical trials; cited from earlier work
[3] = case study, patient with hypertension, blood pressure and side effects; format: in vivo, human; settings: 30 mg CoQ10 at 9 AM, patient on 40 mg telmisartan in the evening; reading by 12 PM, from 140/90 at 8 AM
Description: Because of these drug side effects, the patient subsequently dropped the amlodipine and took only a 40 mg daily dose of telmisartan in the evening before retiring. […] On one day with a reading of 140/90 at 8 AM, the patient took 30 mg of CoQ10 at 9 AM and their blood pressure sharply dropped to 103/71 by 12 PM. The patient subsequently began taking 30 mg CoQ10 in the morning and evening along with the evening only dose of 40 mg telmisartan.

For `COC1=C(OC)C(=O)C(C/C=C(\C)CC/C=C(\C)CC/C=C(\C)CC/C=C(\C)CC/C=C(\C)CC/C=C(\C)CC/C=C(\C)CC/C=C(\C)CC/C=C(\C)CCC=C(C)C)=C(C)C1=O` [CoQ10, Coenzyme Q10], the “serum IL-6” value [1] is given as “reduces”, the “serum TNF-alpha” value [1] is given as “reduces” and the “decrease of mean diastolic blood pressure” value [2] is given as 10 mm Hg. For the same compound, the “decrease of mean systolic blood pressure” value [2] was 16 mm Hg and the blood pressure [3] was 103/71.

For `CCOC(=O)[C@H](CCc1ccccc1)N[C@@H](C)C(=O)N1Cc2ccccc2C[C@H]1C(=O)O` [quinapril], the “serum IL-6” value [1] is given as “lower” and the “serum TNF-alpha” value [1] is given as “lower”.
